What all share (test): relative viability (nuclei count vs DMSO), 5 days (fraction); higher = more cells survive
Compound in assay [1]: NCC(=O)Nc1ccc(-n2nc(C(F)(F)F)cc2-c2ccc3c(ccc4ccccc43)c2)cc1 + O=C(c1cc(Cc2n[nH]c(=O)c3ccccc23)ccc1F)N1CCN(C(=O)C2CC2)CC1 [Olaparib] (partner 8 µM)
The gist of the method:
(§1)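 Cells from lung cancer lines were seeded into 1536-well plates and, one day later, dosed by pin tool. Treatments were either a single drug or a fixed dose of an anchor drug with five library-drug doses (not always all listed) in √10 steps. After 5 days, nuclei were stained in a one-step fixation (final 0.05% Triton X-100, 1% formaldehyde, 1 ug/ml Hoechst) and counted on 4× images, and relative viability is the treated-to-vehicle nuclei ratio, as the median of duplicate plates.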

Compound in assay [2]: NCC(=O)Nc1ccc(-n2nc(C(F)(F)F)cc2-c2ccc3c(ccc4ccccc43)c2)cc1 + N=C(N)NC(=N)NCCc1ccccc1 [Phenformin] (partner 250 µM)
A digest of the protocol:
as §1

Compound in assay [3]: C1CSC2=C(C(=O)N1)SC3=C2C=C(C=C3)O [kb NB 142-70] + CC(=O)Nc1cccc(-n2c(=O)n(C3CC3)c(=O)c3c(Nc4ccc(I)cc4F)n(C)c(=O)c(C)c32)c1 [Trametinib] (partner 0.02 µM)
The gist of the method: as §1

Compound in assay [4]: NCC(=O)Nc1ccc(-n2nc(C(F)(F)F)cc2-c2ccc3c(ccc4ccccc43)c2)cc1 + CC(=O)c1c(C)c2cnc(Nc3ccc(N4CCNCC4)cn3)nc2n(C2CCCC2)c1=O [Palbociclib] (partner 0.5 µM)
The gist of the method: as §1

In the case of UMC-11, the relative viability came to 0.307 in assay [1] (first compound 0.02 µM); 0.355 in assay [1] (first compound 0.06325 µM); 0.537 in assay [1] (first compound 0.2 µM); 0.354 in assay [1] (first compound 0.6325 µM); 0.377 in assay [1] (first compound 2 µM); 0.292 in assay [2] (first compound 0.02 µM). For the same cell line, the relative viability in assay [2] (first compound 0.06325 µM) worked out at 0.337; in assay [2] (first compound 0.2 µM), 0.334; in assay [2] (first compound 0.6325 µM), 0.319; in assay [2] (first compound 2 µM), 0.335; in assay [3] (first compound 0.1 µM), 0.668; in assay [3] (first compound 1 µM), 0.735. Moreover, the relative viability is 0.464 in assay [3] (first compound 3.162 µM); 0.301 in assay [4] (first compound 0.02 µM); 0.305 in assay [4] (first compound 0.06325 µM); 0.297 in assay [4] (first compound 0.2 µM); 0.325 in assay [4] (first compound 0.6325 µM); 0.344 in assay [4] (first compound 2 µM).

The values above are taken from the supplement of paper PMC10307832.
